{"source": "paper PMC6137088", "about": "“The Role of Outer Membrane Proteins and Lipopolysaccharides for the Sensitivity of Escherichia coli to Antimicrobial Peptides” (Frontiers in Microbiology, 2018)", "key": {"E. coli F2513 (R4)": {"system": "E. coli F2513 (R4)", "type": "cell-based, Escherichia coli", "details": "Table 4; E. coli F2513 (R4 prototype, rough LPS); triplicates", "excerpt": "(§1) The E. coli strains 470, F632, F653 and F2513 were kindly provided by Prof. H. Brade and Prof. S. Muller-Loennies, Research Center Borstel, Leipniz-Center for Medicine and Biosciences, Germany. E. coli BW25113 (CGSC#:7636), a derivative of F^−, λ^− E. coli K12 strain BD792 is the wild-type strain which was used in the generation of the KEIO collection and ordered from the Coli Genetic Stock Centre (CGSC, Yale University). E. coli JW3596, E. coli JW3024, E. coli JW3595, E. coli JW3606, E. coli JW0212, E. coli JW1667, E. coli JW0554, E. coli JW3605 and E. coli JW3600 are isogenic mutants of waaC, waaE, waaF, waaG, gmhA (lpcA), lpp, ompT, waaP, or waaY derived from the parental strain E. coli BW25113 and were ordered from the KEIO collection (Baba et al., [2006]). E. coli ATCC25922 is a clinical isolate, serotype O6, often used as control strain in antimicrobial susceptibility testing was ordered from the ATCC strain collection. All strains were grown in Mueller-Hinton-II medium and incubation took place aerobically at 37°C for 18–20 h.\n(§2) The minimum inhibitory concentrations (MICs) of the AMPs were measured in 96-well microtiter plates according the Clinical and Laboratory Standards Institute [CLSI, formerly National Committee for Clinical Laboratory Standards (NCCLS)] (Wikler et al., [2009]). Liquid Mueller-Hinton-II medium containing increasing concentrations of AMPs is inoculated with a defined number of cells (~10^5 CFUs/ml) in 96-well microtiter plates (polypropylene). Each microtiter plate includes a positive growth control and a negative control (sterile control). After incubation, the minimal inhibitory concentration (MIC) is determined by the lowest concentration showing no visible growth. All plates were incubated for 16–20 h."}, "[1]": {"system": "E. coli BW25113 waaE::kan", "type": "cell-based, Escherichia coli", "details": "Table 3; BW25113 waaE::kan; Mueller-Hinton-II, 16–20 h; duplicates (*) or triplicates", "excerpt": "as §1, §2"}, "[2]": {"system": "E. coli BW25113 waaY::kan", "type": "cell-based, Escherichia coli", "details": "Table 3, Mueller-Hinton-II, 16–20 h, duplicates (*) or triplicates", "excerpt": "as §1, §2"}, "E. coli F470 (R1)": {"system": "E. coli F470 (R1)", "type": "cell-based, Escherichia coli", "details": "Table 4; E. coli F470 (R1 prototype, rough LPS); triplicates", "excerpt": "as §1, §2"}, "[3]": {"system": "E. coli BW25113 waaP::kan", "type": "cell-based, Escherichia coli", "details": "Table 3; BW25113 waaP::kan; Mueller-Hinton-II, 16–20 h; duplicates (*) or triplicates", "excerpt": "as §1, §2"}, "[4]": {"system": "E. coli BW25113 waaF::kan", "type": "cell-based, Escherichia coli", "details": "Table 3; BW25113 waaF::kan; Mueller-Hinton-II, 16–20 h; duplicates (*) or triplicates", "excerpt": "as §1, §2"}, "[5]": {"system": "E. coli BW25113 waaG::kan", "type": "cell-based, Escherichia coli", "details": "Table 3; BW25113 waaG::kan; Mueller-Hinton-II, 16–20 h; duplicates (*) or triplicates", "excerpt": "as §1, §2"}, "[6]": {"system": "E. coli BW25113 gmhA::kan", "type": "cell-based, Escherichia coli", "details": "Table 3; BW25113 gmhA::kan; Mueller-Hinton-II, 16–20 h; duplicates (*) or triplicates", "excerpt": "as §1, §2"}, "E. coli F653 (R3)": {"system": "E. coli F653 (R3)", "type": "cell-based, Escherichia coli", "details": "Table 4; E. coli F653 (R3 prototype, rough LPS); triplicates", "excerpt": "as §1, §2"}, "E. coli BW25113": {"system": "E. coli BW25113", "type": "cell-based, Escherichia coli", "details": "for MIC: Table 3, E. coli BW25113 wild type, Mueller-Hinton-II, ~10^5 CFUs/ml, 16–20 h, duplicates (*) or triplicates", "excerpt": "as §1, §2"}, "E. coli F632 (R2)": {"system": "E. coli F632 (R2)", "type": "cell-based, Escherichia coli", "details": "Table 4; E. coli F632 (R2 prototype, rough LPS); triplicates", "excerpt": "as §1, §2"}, "[7]": {"system": "E. coli strains representing core types K12, R1, R2, R3, R4 and ATCC25922", "type": "cell-based, Escherichia coli", "details": "span over isolates and core types of Table 4", "excerpt": "as §1, §2"}, "[8]": {"system": "E. coli BW25113 waaC::kan", "type": "cell-based, Escherichia coli", "details": "Table 3; BW25113 waaC::kan; Mueller-Hinton-II, 16–20 h; duplicates (*) or triplicates", "excerpt": "as §1, §2"}, "[9]": {"system": "E. coli BW25113 ompT::kan", "type": "cell-based, Escherichia coli", "details": "Table 3; BW25113 ompT::kan; Mueller-Hinton-II, 16–20 h; duplicates (*) or triplicates", "excerpt": "as §1, §2"}, "E. coli ATCC25922 ΔwaaG": {"system": "E. coli ATCC25922 ΔwaaG", "type": "cell-based, Escherichia coli", "details": "Table 6, triplicates", "excerpt": "as §1, §2"}, "E. coli ATCC25922": {"system": "E. coli ATCC25922", "type": "cell-based, Escherichia coli", "details": "Table 6; E. coli ATCC25922 wild-type; triplicates", "excerpt": "as §1, §2"}, "E. coli ATCC25922 ΔwaaF": {"system": "E. coli ATCC25922 ΔwaaF", "type": "cell-based, Escherichia coli", "details": "Table 6, triplicates", "excerpt": "as §1, §2"}, "E. coli ATCC25922 ΔwaaE": {"system": "E. coli ATCC25922 ΔwaaE", "type": "cell-based, Escherichia coli", "details": "Table 6, triplicates", "excerpt": "as §1, §2"}, "E. coli ATCC25922 ΔwaaC": {"system": "E. coli ATCC25922 ΔwaaC", "type": "cell-based, Escherichia coli", "details": "Table 6, triplicates", "excerpt": "as §1, §2"}, "Y. ruckeri 392/2003": {"system": "Y. ruckeri 392/2003", "assay": "MIC testing (CLSI broth microdilution)", "type": "cell-based", "details": "Table 6, triplicates", "protocol": "as §2"}, "S. typhimurium LT2": {"system": "S. typhimurium LT2", "assay": "MIC testing (CLSI broth microdilution)", "type": "cell-based", "details": "Table 6, triplicates", "protocol": "as §2"}, "[10]": {"system": "enteropathogenic E. coli EPEC E2348/69 ΔompT", "details": "ref Thomassin et al., 2012; cited from earlier work", "excerpt": "(§3) Bacterial pathogens have evolved different mechanisms to resist the antimicrobial activity of cationic AMPs (Peschel and Sahl, [2006]). The production of proteases degrading and thereby inactivating cationic AMPs is one obvious way for bacteria to protect themselves against antimicrobials. Several omptins such as OmpT, and PgtE, all proteases found in the OM of various Gram-negative pathogens belonging to the Enterobacteriaceae family, have been associated with the degradation of AMPs (Hritonenko and Stathopoulos, [2007]). In particular, OmpT has been implicated in the proteolytic degradation ..."}, "[11]": {"system": "uropathogenic E. coli CFT073ΔompT", "details": "ref Brannon et al., 2013; cited from earlier work", "excerpt": "as §3"}, "[12]": {"system": "enterohemorrhagic E. coli EHEC EDL933", "details": "ref Thomassin et al., 2012; cited from earlier work", "excerpt": "as §3"}}, "note": "Where no end group is shown, it is not given here."}
{"molecule": "CC[C@H](C)[C@H](NC(=O)CN)C(=O)NCC(=O)N[C@@H](C)C(=O)N[C@H](C(=O)N[C@@H](CC(C)C)C(=O)N[C@@H](CCCCN)C(=O)N[C@H](C(=O)N[C@@H](CC(C)C)C(=O)N[C@H](C(=O)N[C@H](C(=O)NCC(=O)N[C@@H](CC(C)C)C(=O)N1CCC[C@H]1C(=O)N[C@@H](C)C(=O)N[C@@H](CC(C)C)C(=O)N[C@H](C(=O)N[C@@H](CO)C(=O)N[C@@H](Cc1c[nH]c2ccccc12)C(=O)N[C@H](C(=O)N[C@@H](CCCCN)C(=O)N[C@@H](CCCNC(=N)N)C(=O)N[C@@H](CCCCN)C(=O)N[C@@H](CCCNC(=N)N)C(=O)N[C@@H](CCC(N)=O)C(=O)N[C@@H](CCC(N)=O)C(N)=O)[C@@H](C)CC)[C@@H](C)CC)[C@@H](C)O)[C@@H](C)O)C(C)C)C(C)C", "note": "[Melittin]", "values": [{"measurement": "Antimicrobial activity (MIC)", "setting": "E. coli F2513 (R4)", "value": 4, "unit": "µg/mL"}, {"measurement": "MIC", "setting": "[1]", "value": 4, "unit": "µg/mL"}, {"measurement": "MIC", "setting": "[2]", "value": "16 to 32", "unit": "µg/mL"}, {"measurement": "Antimicrobial activity (MIC)", "setting": "E. coli F470 (R1)", "value": 16, "unit": "µg/mL"}, {"measurement": "MIC", "setting": "[3]", "value": 4, "unit": "µg/mL"}, {"measurement": "MIC", "setting": "[4]", "value": 4, "unit": "µg/mL"}, {"measurement": "MIC", "setting": "[5]", "value": 4, "unit": "µg/mL"}, {"measurement": "MIC", "setting": "[6]", "value": "2 ^* μg/ml"}, {"measurement": "Antimicrobial activity (MIC)", "setting": "E. coli F653 (R3)", "value": 32, "unit": "µg/mL"}, {"measurement": "MIC", "setting": "E. coli BW25113", "value": "16 to 32", "unit": "µg/mL"}, {"measurement": "Antimicrobial activity (MIC)", "setting": "E. coli F632 (R2)", "value": 32, "unit": "µg/mL"}, {"measurement": "MIC over all the tested E. coli strains", "setting": "[7]", "value": "4 to 32", "unit": "µg/mL"}, {"measurement": "MIC", "setting": "[8]", "value": 4, "unit": "µg/mL"}, {"measurement": "MIC", "setting": "[9]", "value": "32 ^* μg/ml"}]}
{"molecule": "GLRKRLRKFRNKIKEKLKKIGQKIQGLLPKLAPRTDY [Cap18]", "values": [{"measurement": "Antimicrobial activity (MIC)", "setting": "E. coli F2513 (R4)", "value": "2 to 4", "unit": "µg/mL"}, {"measurement": "MIC", "setting": "[1]", "value": 4, "unit": "µg/mL"}, {"measurement": "MIC", "setting": "[2]", "value": "4 to 8", "unit": "µg/mL"}, {"measurement": "Antimicrobial activity: MIC", "setting": "E. coli ATCC25922 ΔwaaG", "value": 4, "unit": "µg/mL"}, {"measurement": "Antimicrobial activity: MIC", "setting": "E. coli ATCC25922", "value": "4 to 8", "unit": "µg/mL"}, {"measurement": "Antimicrobial activity: MIC", "setting": "E. coli ATCC25922 ΔwaaF", "value": "2 to 4", "unit": "µg/mL"}, {"measurement": "Antimicrobial activity (MIC)", "setting": "E. coli F470 (R1)", "value": 4, "unit": "µg/mL"}, {"measurement": "MIC", "setting": "[3]", "value": "4 to 8", "unit": "µg/mL"}, {"measurement": "MIC", "setting": "[4]", "value": 4, "unit": "µg/mL"}, {"measurement": "MIC", "setting": "[5]", "value": 4, "unit": "µg/mL"}, {"measurement": "MIC", "setting": "[6]", "value": "4 to 8", "unit": "µg/mL"}, {"measurement": "Antimicrobial activity (MIC)", "setting": "E. coli F653 (R3)", "value": "4 to 8", "unit": "µg/mL"}, {"measurement": "MIC", "setting": "E. coli BW25113", "value": "4 to 8", "unit": "µg/mL"}, {"measurement": "Antimicrobial activity (MIC)", "setting": "E. coli BW25113; Table 4, E. coli BW25113 (K12 core type), triplicates", "value": "4 to 8", "unit": "µg/mL"}, {"measurement": "Antimicrobial activity: MIC", "setting": "E. coli ATCC25922 ΔwaaE", "value": 4, "unit": "µg/mL"}, {"measurement": "Antimicrobial activity (MIC)", "setting": "E. coli F632 (R2)", "value": 4, "unit": "µg/mL"}, {"measurement": "Antimicrobial activity: MIC", "setting": "E. coli ATCC25922 ΔwaaC", "value": "2 to 4", "unit": "µg/mL"}, {"measurement": "MIC over all the tested E. coli strains", "setting": "[7]", "value": "4 to 8", "unit": "µg/mL"}, {"measurement": "MIC", "setting": "[8]", "value": 4, "unit": "µg/mL"}, {"measurement": "MIC", "setting": "[9]", "value": "4 to 8", "unit": "µg/mL"}, {"measurement": "Antimicrobial activity: MIC", "setting": "Y. ruckeri 392/2003", "value": "2 to 4", "unit": "µg/mL"}, {"measurement": "Antimicrobial activity: MIC", "setting": "S. typhimurium LT2", "value": "4 to 8", "unit": "µg/mL"}]}
{"molecule": "LL-37", "values": [{"measurement": "decrease in MIC in the ΔompT mutant compared to parental EPEC E2348/69 (factor)", "setting": "[10]", "value": "unchanged"}, {"measurement": "change of MIC in CFT073ΔompT compared to wild-type CFT073", "setting": "[11]", "value": "unchanged"}, {"measurement": "decrease of MIC by loss of OmpT in EHEC EDL933 (factor)", "setting": "[12]", "value": 2}]}
